The target in this experiment is T1, Kras and SOS1 (biotin-tagged human Kras loaded with GDP, His-tagged human SOS1) (Homo sapiens, UniProt P01116, G12D).
T1 construct: made in house; host or cells: E. coli (stated for Kras only)
The experiment is described as follows: Protein-protein interaction inhibition between Kras and SOS1 (KrasGl2D-SOS PPI) using AlphaScreen. The class given is binding. The following applies: AlphaScreen; biotin-tagged human Kras loaded with GDP, His-tagged human SOS1; read-out: KRAS G12D-SOS PPI IC50. How it is done: Protein-Protein Interaction Inhibition Between Kras and SOS1 (KrasGl2D-SOS PPI) Using AlphaScreen
Protein-protein interaction inhibition (PPI) between Kras and SOS1 was measured by energy transfer from nickel-conjugated donor beads to streptavidin-conjugated acceptor beads using biotin-tagged human Kras expressed in E. coli and loaded with GDP after purification and His-tagged human SOS1 enzyme. This measurement utilizes the phenomenon in which donor beads are irradiated with light at 680 nm, such that energy is transferred to acceptor beads through singlet oxygen and light at 520-620 nm is detected from the acceptor beads.
Inhibition of binding between K-ras and SOS1 is known to inhibit signaling downstream of Kras.
For orientation: Alpha assays give light when donor and acceptor beads are brought close together.

Starred links: 1 amine or outer side, 2 acyl side, 3 side chain; linkers in the order of their positions; H or OH if unused. Positions of bridges follow the written chain, without caps; N, C: chain ends. Non-standard residues stand in square brackets, D forms with d. Residues, ends and D or L forms follow the SMILES beside them. *: point of attachment. hPhe(3-Cl-4-CF3) = N[C@@H](CCc1ccc(C(F)(F)F)c(Cl)c1)C(=O)O; NMePhe(4-CF3) = CN[C@@H](Cc1ccc(C(F)(F)F)cc1)C(=O)O; hPhe(4-CF3) = N[C@@H](CCc1ccc(C(F)(F)F)cc1)C(=O)O; NMePhe(4-Cl) = CN[C@@H](Cc1ccc(Cl)cc1)C(=O)O; NMePhe(4-Me) = CN[C@@H](Cc1ccc(C)cc1)C(=O)O; NMePhe(2-Cl) = CN[C@@H](Cc1ccccc1Cl)C(=O)O; NMedβ3hAla = C[C@H](CC(=O)[*:2])N(C)[*:1]; hNle(7,7-F2) = N[C@@H](CCCCC(F)F)C(=O)O; NMeGly(cPent) = CN[C@H](C(=O)O)C1CCCC1; Pro(4,4-F2) = O=C(O)[C@@H]1CC(F)(F)CN1; NMe3Pal = CN[C@@H](Cc1cccnc1)C(=O)O; NMeCha = CN[C@@H](CC1CCCCC1)C(=O)O; NMeChg = CN[C@H](C(=O)O)C1CCCCC1; NMeF = CN[C@@H](Cc1ccccc1)C(=O)O; NMeI = CC[C@H](C)[C@H](NC)C(=O)O; NMeD = CN[C@@H](CC(=O)O)C(=O)O; NMeL = CN[C@@H](CC(C)C)C(=O)O; NMeV = CN[C@H](C(=O)O)C(C)C; d(β3hA) = C[C@@H](N)CC(=O)O; NMeA = CN[C@@H](C)C(=O)O; NMeAib = CNC(C)(C)C(=O)O; Piperidide = C1CCN(*)CC1; Ac5c = NC1(C(=O)O)CCCC1; Aze = O=C(O)[C@@H]1CCN1; Ac4c = NC1(C(=O)O)CCC1; Sar = CNCC(=O)O

T1 sequence (P01116 1-188 isoform P01116-2 G12D): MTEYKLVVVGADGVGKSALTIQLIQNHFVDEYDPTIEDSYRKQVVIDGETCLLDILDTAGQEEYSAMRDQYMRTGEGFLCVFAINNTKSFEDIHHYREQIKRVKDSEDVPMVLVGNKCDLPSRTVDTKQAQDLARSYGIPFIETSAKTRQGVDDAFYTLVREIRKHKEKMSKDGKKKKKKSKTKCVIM

With `CC[C@H](C)[C@@H]1NC(=O)[C@H](CC(C)C)N(C)C(=O)C[C@@H](C)N(C)C(=O)[C@H](C2CCCC2)N(C)C(=O)C2(CCC2)NC(=O)[C@@H]2CC(F)(F)CN2C(=O)[C@H](CCc2ccc(C(F)(F)F)c(Cl)c2)NC(=O)CN(C)C(=O)[C@H](Cc2ccc(C(F)(F)F)cc2)N(C)C(=O)CN(C)C(=O)CN(C)C1=O` [Compound 62] (cyclo([Ac4c][NMeGly(cPent)][NMedβ3hAla][NMeL]I[Sar][Sar][NMePhe(4-CF3)][Sar][hPhe(3-Cl-4-CF3)][Pro(4,4-F2)])), the concentration for half-maximal inhibition (IC50) – broadly, the point on the concentration scale where inhibition reaches its midpoint – is 3.8 nM.

For `CC[C@H](C)[C@@H]1NC(=O)[C@H](CC(C)C)N(C)C(=O)C[C@@H](C(=O)N2CCCCC2)N(C)C(=O)[C@H](C2CCCCC2)N(C)C(=O)C2(CCCC2)NC(=O)[C@H](Cc2cccnc2)N(C)C(=O)[C@H](CCc2ccc(C(F)(F)F)c(Cl)c2)NC(=O)CN(C)C(=O)[C@H](CC2CCCCC2)N(C)C(=O)CN(C)C(=O)CN(C)C1=O` [Compound 63] ([NMeL]I[Sar][Sar][NMeCha][Sar][hPhe(3-Cl-4-CF3)][NMe3Pal][Ac5c][NMeChg][NMeD]-Piperidide; lactam N-11), the half-maximal inhibitory concentration (IC50) was 3.7 nM.

On to `CC[C@H](C)[C@@H]1NC(=O)[C@H](CC(C)C)N(C)C(=O)C[C@@H](C(=O)N(C)C)N(C)C(=O)[C@H]([C@@H](C)CC)N(C)C(=O)C2(CCCC2)NC(=O)[C@@H](C)NC(=O)[C@H](CCc2ccc(C(F)(F)F)c(Cl)c2)NC(=O)CN(C)C(=O)[C@H](Cc2ccc(C)cc2)N(C)C(=O)[C@@H]2CCN2C(=O)[C@H](C)N(C)C1=O` [Compound 67] ([NMeL]I[NMeA][Aze][NMePhe(4-Me)][Sar][hPhe(3-Cl-4-CF3)][dA][Ac5c][NMeI][NMeD]-NMe2; lactam N-11), for which the IC50 was 8.3 nM.

Consider `CC[C@H](C)[C@@H]1NC(=O)[C@H](C)N(C)C(=O)C[C@@H](C)NC(=O)[C@H](C(C)C)N(C)C(=O)[C@H](Cc2ccccc2)N(C)C(=O)[C@H](CC(C)C)N(C)C(=O)[C@H](CCc2ccc(C(F)(F)F)cc2)NC(=O)CN(C)C(=O)[C@H](Cc2ccc(Cl)cc2)N(C)C(=O)CN(C)C(=O)[C@@H]2CCN2C1=O` [Compound 71] (cyclo([Aze][Sar][NMePhe(4-Cl)][Sar][hPhe(4-CF3)][NMeL][NMeF][NMeV][d(β3hA)][NMeA]I)), for which the concentration for half-maximal inhibition (IC50) was 150 nM.

On to `CC[C@H](C)[C@@H]1NC(=O)[C@H](CC(C)C)N(C)C(=O)C[C@@H](C)NC(=O)[C@H](C(C)C)N(C)C(=O)C2(CCCC2)NC(=O)[C@@H]2CCCN2C(=O)[C@H](CCc2ccc(C(F)(F)F)c(Cl)c2)NC(=O)[C@H]2CCCN2C(=O)[C@H](CC2CCCCC2)N(C)C(=O)CN(C)C(=O)CN(C)C1=O` [Compound 76] (cyclo([Ac5c][NMeV][d(β3hA)][NMeL]I[Sar][Sar][NMeCha][dP][hPhe(3-Cl-4-CF3)]P)), for which the 50% inhibitory concentration (IC50) stood at 190 nM.

As for `CC[C@H](C)[C@@H]1NC(=O)[C@H](C)N(C)C(=O)C[C@@H](C)NC(=O)[C@H](C(C)C)N(C)C(=O)C2(CCCC2)NC(=O)[C@@H]2CCCN2C(=O)[C@H](CCc2ccc(C(F)(F)F)c(Cl)c2)NC(=O)[C@H]2CCCN2C(=O)[C@H](CC2CCCCC2)N(C)C(=O)[C@@H]2CCN2C(=O)CN(C)C1=O` [Compound 77] (cyclo([Ac5c][NMeV][d(β3hA)][NMeA]I[Sar][Aze][NMeCha][dP][hPhe(3-Cl-4-CF3)]P)), the half-maximal inhibitory concentration (IC50) turned out to be 100 nM.

Regarding `CC[C@H](C)[C@@H]1NC(=O)[C@H](C)N(C)C(=O)C[C@@H](C)NC(=O)[C@H](C2CCCC2)N(C)C(=O)C2(CCCC2)NC(=O)[C@@H]2CCCN2C(=O)[C@H](CCc2ccc(C(F)(F)F)c(Cl)c2)NC(=O)CN(C)C(=O)[C@H](Cc2ccccc2Cl)N(C)C(=O)[C@@H]2CCCN2C(=O)CN(C)C1=O` [Compound 82] (cyclo([Ac5c][NMeGly(cPent)][d(β3hA)][NMeA]I[Sar]P[NMePhe(2-Cl)][Sar][hPhe(3-Cl-4-CF3)]P)), the 50% inhibitory concentration (IC50) stood at 140 nM.

For `CC(C)C[C@H]1C(=O)N[C@@H](CCCCC(F)F)C(=O)N(C)CC(=O)N(C)CC(=O)N(C)[C@@H](CC2CCCCC2)C(=O)N(C)CC(=O)N[C@@H](CCc2ccc(C(F)(F)F)c(Cl)c2)C(=O)N2CCC[C@H]2C(=O)NC2(CCCC2)C(=O)N(C)[C@@H](C2CCCCC2)C(=O)N(C)[C@H](C(=O)N2CCCCC2)CC(=O)N1C` [Compound 92] ([NMeL][hNle(7,7-F2)][Sar][Sar][NMeCha][Sar][hPhe(3-Cl-4-CF3)]P[Ac5c][NMeChg][NMeD]-Piperidide; lactam N-11), the IC50 turned out to be 5.5 nM.

In the case of `CC[C@H](C)[C@@H]1NC(=O)[C@H](C)N(C)C(=O)C[C@@H](C)NC(=O)[C@H](C(C)C)N(C)C(=O)C(C)(C)N(C)C(=O)[C@@H]2CCCN2C(=O)[C@H](CCc2ccc(C(F)(F)F)c(Cl)c2)NC(=O)CN(C)C(=O)[C@H](CC2CCCCC2)N(C)C(=O)CN(C)C(=O)CN(C)C1=O` [Compound 93] (cyclo(I[Sar][Sar][NMeCha][Sar][hPhe(3-Cl-4-CF3)]P[NMeAib][NMeV][d(β3hA)][NMeA])), the IC50 is 6.9 nM.

These data come from patent US12371454B2, “Cyclic peptide compound having Kras inhibitory action” (priority 2019, dated 2025).
